# “Also recorded” adds a separate entry of the source.
# What was measured:
# Assay type in all cases: in vivo, Male Sprague Dawley rats
# [1] = system: chemotherapy-induced peripheral neuropathic pain in rats; experiment: Paclitaxel-induced peripheral neuropathic pain, paw withdrawal threshold with von Frey filaments, single administration (Example 5); details: for Paw withdrawal threshold (PWT) compared to vehicle (in words): Day 14; for Paw withdrawal threshold (PWT), Day 14 Avg., Mean: i.p., 2 hours prior to test, Count 12
# Description: Assessment of neuropathic pain using von Frey filaments was performed. Rats were administered paclitaxel (2 mg/kg) on four alternate days (days 1, 3, 5 and 7). Baseline and post treatment paw withdrawal thresholds (PWT) were evaluated using von Frey filaments (Semmes-Weinstein filaments, Stoelting, Wood Dale, Ill., USA) of varying stiffness (0.4, 0.7, 1.2, 2.0, 3.6, 5.5, 8.5, 10, 15, 26 g). Animals were placed on a perforated metallic platform and allowed to acclimate to their surroundings for a minimum of 15 minutes before each test session. Each filament was presented perpendicular to the plantar surface with sufficient force to cause slight buckling against the paw, and then held until a positive response is noted (paw sharply withdrawn). As described by Chaplan, S. R. et al. “Qualitative Assessment of Tactile Allodynia in the Rat Paw” Journal of Neuroscience Methods, 53 (1994), 55-63 (“Chaplan”), once the threshold was crossed, the 2 responses straddling the threshold are retrospectively designated as the first 2 responses. Four additional responses were measured to stimuli varied sequentially up or down based on the animal's response. The 6 responses in the immediate vicinity of the threshold were used to calculate the 50% g threshold: 50% g threshold=(10^[Xf+k*d])/10000
# Xf is the final filament used (in log units). The parameter k is from the Appendix 1 in Chaplan and was determined by the pattern of the von Frey responses (e.g. OXOXOX where ‘O’ indicates no response and ‘X’ denotes a withdrawal). The parameter d is the difference between stimuli which Chaplan used a constant d=0.224. To accommodate for the use of the 10 g and 26 g filaments, the exact difference between stimuli were used.
# (§1) Male Sprague Dawley rats (from Envigo, Ind., USA) were used in the study. Animals were received at approximately 250 g and housed 3 per cage upon arrival. All rats were examined, handled, and weighed prior to initiation of the study to assure adequate health and suitability. During the course of the study, 12 h/12 h light/dark cycles was maintained. The room temperature was be maintained between 20 and 23° C. with a relative humidity maintained around 50%. Chow and water was provided ad libitum for the duration of the study. All testing was performed during the animal's light cycle phase. Every effort was made to minimize suffering of animals. Rats with baseline PWT less than 12 g were not included in the study. Rats were balanced by body weight and by their pre-paclitaxel PWT values. ANOVA found no significant differences between the treatment groups.
# Paclitaxel was purchased from Biolyse Pharma (Ontario, Canada) and was injected i.p. (2 mg/kg) on four alternate days (day 1, 3, 5 and 7) for a total of 4 injections at a dose volume of 1 mL/kg.
# Rats were subsequently balanced and assigned to treatment groups based on post-paclitaxel PWT values. On test day, PWT was assessed two hours post vehicle or MIN-117 injections and one hour after gabapentin administration.
# Gabapentin was purchased from Toronto Research Chemicals and was dissolved in saline and administered orally 60 minutes prior to test at a dose volume of 1 mL/kg. MIN-117 (1, 3 and 10 mg/kg), formulated in 0.5% (w/v) hydroxypropylmethylcellulose (HPMC, Sigma-Aldrich), was administered i.p. at a dose volume of 1 mL/kg. MIN-117 was administered 2 hours prior to test.
# [2] = Body weight during the chemotherapy induced neuropathic pain study (Example 5); details: paclitaxel days 1, 3, 5, 7; test compound on day 14; repeated measures ANOVA
# Description: as §1
# [3] = Body weight, prevention study (Example 6); details: 10 mg/kg i.p. once daily for 7 or 14 days; effect seen from day 2 until day 11
# Description: (§2) Body weight (BW) was measured daily during treatment and twice a week after cessation of dosing.
# (§3) Data was analyzed by analysis of variance (ANOVA) followed by post-hoc comparisons where appropriate. An effect will be considered significant if p<0.05. Data was represented as the mean and standard error to the mean (s.e.m). Statistical outliers that fell above or below 2 standard deviations of the mean were identified but not removed from the final analysis.
# [4] = Body weight, reversal study (Example 6); details: 1, 3 and 10 mg/kg i.p. once daily for 2 weeks; repeated measures ANOVA
# Description: as §2, §3
structure (smiles),measurement,setting,value
"Cc1nnc(-c2cc3c(OC[C@@H](O)CN4CCC(c5ccc(Cl)c(Cl)c5)CC4)cccc3o2)o1.Cl [MIN-117, (2S)-1-(4-(3,4-dichlorophenyl)piperidin-1-yl)-3-((2-(5-methyl-1,3,4-oxadiazol-2-yl)benzofuran-4-yl)oxy)propan-2-ol hydrochloride]",Paw withdrawal threshold (PWT) compared to vehicle (in words),[1]; 1 mg/kg i.p. 2 hours prior to test,did not show a significant increase in PWT
same,Paw withdrawal threshold (PWT) compared to vehicle (in words),"[1]; 3 mg/kg i.p. 2 hours prior to test, hydrochloride, 3 mg/kg",significant increase in PWT; also recorded: significantly reduced neuropathic pain
same,Paw withdrawal threshold (PWT) compared to vehicle (in words),"[1]; 10 mg/kg i.p. 2 hours prior to test, hydrochloride, 10 mg/kg",significant increase in PWT; also recorded: significantly reduced neuropathic pain
same,"Mean Diff. of Day 14 Avg. PWT, Fisher's PLSD","[1]; Paclitaxel + Gabapentin (100 mg/kg), Paclitaxel + MIN-117 (1 mg/kg)",14.200
same,"Mean Diff. of Day 14 Avg. PWT, Fisher's PLSD","[1]; Paclitaxel + Gabapentin (100 mg/kg), Paclitaxel + MIN-117 (3 mg/kg)",12.775
same,"Mean Diff. of Day 14 Avg. PWT, Fisher's PLSD","[1]; Paclitaxel + Gabapentin (100 mg/kg), Paclitaxel + MIN-117 (10 mg/kg)",11.802
same,"Mean Diff. of Day 14 Avg. PWT, Fisher's PLSD","[1]; Paclitaxel + MIN-117 (1 mg/kg), Paclitaxel + MIN-117 (3 mg/kg)",−1.425
same,"Mean Diff. of Day 14 Avg. PWT, Fisher's PLSD","[1]; Paclitaxel + MIN-117 (1 mg/kg), Paclitaxel + MIN-117 (10 mg/kg)",−2.399
same,"Paw withdrawal threshold (PWT), Day 14 Avg., Mean",[1]; Paclitaxel + MIN-117 (1 mg/kg),5.433 g
same,"Paw withdrawal threshold (PWT), Day 14 Avg., Mean",[1]; Paclitaxel + MIN-117 (3 mg/kg),6.858 g
same,"Paw withdrawal threshold (PWT), Day 14 Avg., Mean",[1]; Paclitaxel + MIN-117 (10 mg/kg),7.832 g
same,"Mean Diff. of Day 14 Avg. PWT, Fisher's PLSD","[1]; Paclitaxel + Vehicle, Paclitaxel + MIN-117 (1 mg/kg)",−1.558
same,"Mean Diff. of Day 14 Avg. PWT, Fisher's PLSD","[1]; Paclitaxel + Vehicle, Paclitaxel + MIN-117 (3 mg/kg)",−2.984
same,"Mean Diff. of Day 14 Avg. PWT, Fisher's PLSD","[1]; Paclitaxel + Vehicle, Paclitaxel + MIN-117 (10 mg/kg)",−3.957
same,"Body weight during the study, between groups (in words)",[2],no significant difference between groups
same,Body weight compared to vehicle (in words),[3],decrease in body weight
same,Body weight during treatment compared to vehicle (in words),[4],no significant treatment effect

# Source: US11766430B2, “Methods of using a phenoxypropylamine compound to treat pain” (Minerva Neurosciences, Inc., priority 2018, dated 2023)
